Results from ChEMBL document CHEMBL1201862, “PubChem BioAssay data set” (2004).
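Interpolation was linear, between the two tested concentrations surrounding the appropriate level; five concentrations were tested over 48 hours in 96-well plates. GI50 = concentration required for 50% inhibition of growth.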 Calls of active or inactive are those of the source. Rule as the data show it: active = GI50 up to about 1.1 µM and inactive = higher.

What was measured:
Assay in all cases: growth of human tumour cells (NCI), 48 h
DLD-1 = tested on: DLD-1
HCC 2998 = tested on: HCC 2998
HCT-116 = tested on: HCT-116
LOX IMVI = tested on: LOX IMVI
NCI-H23 = tested on: NCI-H23
NCI-H460 = tested on: NCI-H460
OVCAR-3 = tested on: OVCAR-3
OVCAR-8 = tested on: OVCAR-8
RPMI-8226 = tested on: RPMI-8226
SF-295 = tested on: SF-295
SF-539 = tested on: SF-539
SK-MEL-28 = tested on: SK-MEL-28
SK-OV-3 = tested on: SK-OV-3
SN12C = tested on: SN12C
SNB-75 = tested on: SNB-75
SW-620 = tested on: SW-620
UACC-257 = tested on: UACC-257
UO-31 = tested on: UO-31
NCI-H522 = tested on: NCI-H522
OVCAR-5 = tested on: OVCAR-5

**Q.** What does the source list for `Nc1nc(Cl)cc(NCCCCCCCCCCCCNc2cc(Cl)nc(N)n2)n1`?
**A.** GI50 (DLD-1): 4.61 µM (inactive); GI50 (HCC 2998): 38.5 µM (inactive); GI50 (HCT-116): 0.832 µM (active); GI50 (LOX IMVI): 0.0869 µM (active); GI50 (NCI-H23): 0.0136 µM (active); GI50 (NCI-H460): 2.5 µM (inactive); GI50 (OVCAR-3): 11.1 µM (inactive); GI50 (OVCAR-8): 10.1 µM (inactive); GI50 (RPMI-8226): > 100 µM (inactive); GI50 (SF-295): 1.41 µM (inactive); GI50 (SF-539): 15.2 µM (inactive); GI50 (SK-MEL-28): 7.67 µM (inactive); GI50 (SK-OV-3): 32.4 µM (inactive); GI50 (SN12C): 32.7 µM (inactive); GI50 (SNB-75): 8.53 µM (inactive); GI50 (SW-620): 28.8 µM (inactive); GI50 (UACC-257): 0.515 µM (active); GI50 (UO-31): 31.7 µM (inactive)

**Q.** `COc1ccc(/C=N/NC(=O)NCCCN(C)C)cc1` was tested. Which GI50 (DLD-1) did it give?
**A.** Its GI50 is > 100 µM (inactive).

**Q.** What about the GI50 (HCT-116) of the same compound?
**A.** Its GI50 is > 100 µM (inactive).

**Q.** What about the GI50 (LOX IMVI) of the same compound?
**A.** Its GI50 is 85.9 µM (inactive).

**Q.** And the GI50 (NCI-H23)?
**A.** The GI50 was > 100 µM (inactive).

**Q.** What about the GI50 (NCI-H460) of the same compound?
**A.** Its GI50 is > 100 µM (inactive).

**Q.** What about the GI50 (NCI-H522) of the same compound?
**A.** The GI50 was > 100 µM (inactive).

**Q.** And the GI50 (OVCAR-3)?
**A.** Its GI50 is > 100 µM (inactive).

**Q.** And the GI50 (OVCAR-8)?
**A.** The GI50 was > 100 µM (inactive).

**Q.** And the GI50 (SF-295)?
**A.** Its GI50 is > 100 µM (inactive).

**Q.** What about the GI50 (SF-539) of the same compound?
**A.** Its GI50 is > 100 µM (inactive).

**Q.** What about the GI50 (SK-MEL-28) of the same compound?
**A.** The GI50 was > 100 µM (inactive).

**Q.** And the GI50 (SK-OV-3)?
**A.** The GI50 was > 100 µM (inactive).

**Q.** And the GI50 (SN12C)?
**A.** Its GI50 is > 100 µM (inactive).

**Q.** What about the GI50 (SW-620) of the same compound?
**A.** Its GI50 is > 100 µM (inactive).

**Q.** What about the GI50 (UACC-257) of the same compound?
**A.** The GI50 was > 100 µM (inactive).

**Q.** What about the GI50 (UO-31) of the same compound?
**A.** The GI50 was > 100 µM (inactive).

**Q.** `O=C(Nc1cccc(C(F)(F)F)c1)C(=O)C(C(=O)c1ccc(Cl)c(Cl)c1)C1OC(=O)c2ccccc21` (centres undefined) was tested. Which GI50 (DLD-1) did it give?
**A.** Its GI50 is 41.9 µM (inactive).

**Q.** And the GI50 (HCC 2998)?
**A.** The GI50 was 28.5 µM (inactive).

**Q.** What about the GI50 (HCT-116) of the same compound?
**A.** Its GI50 is 17.5 µM (inactive).

**Q.** And the GI50 (LOX IMVI)?
**A.** Its GI50 is 27.3 µM (inactive).

**Q.** And the GI50 (NCI-H23)?
**A.** The GI50 was 27.4 µM (inactive).

**Q.** What about the GI50 (NCI-H460) of the same compound?
**A.** Its GI50 is 31.8 µM (inactive).

**Q.** What about the GI50 (NCI-H522) of the same compound?
**A.** The GI50 was 28.8 µM (inactive).

**Q.** And the GI50 (OVCAR-3)?
**A.** Its GI50 is 32.1 µM (inactive).

**Q.** What about the GI50 (OVCAR-5) of the same compound?
**A.** Its GI50 is 62.4 µM (inactive).

**Q.** What about the GI50 (OVCAR-8) of the same compound?
**A.** The GI50 was 26.5 µM (inactive).

**Q.** What about the GI50 (RPMI-8226) of the same compound?
**A.** The GI50 was 56 µM (inactive).

**Q.** And the GI50 (SK-OV-3)?
**A.** The GI50 was > 100 µM (inactive).

**Q.** What about the GI50 (SN12C) of the same compound?
**A.** Its GI50 is 36.6 µM (inactive).

**Q.** What about the GI50 (SNB-75) of the same compound?
**A.** Its GI50 is 22.7 µM (inactive).

**Q.** What about the GI50 (SW-620) of the same compound?
**A.** Its GI50 is 38.1 µM (inactive).

**Q.** What about the GI50 (UACC-257) of the same compound?
**A.** The GI50 was 51.8 µM (inactive).

**Q.** What about the GI50 (UO-31) of the same compound?
**A.** Its GI50 is 55.1 µM (inactive).

**Q.** With `CCCCCC/C(CC(=O)CCC(=O)NCCc1ccccc1)=N\NC(=O)c1ccc2ccccc2c1O` as the compound, how does the GI50 (DLD-1) read?
**A.** The GI50 was 36.9 µM (inactive).

**Q.** What about the GI50 (HCC 2998) of the same compound?
**A.** The GI50 was 53.3 µM (inactive).

**Q.** And the GI50 (HCT-116)?
**A.** Its GI50 is 29.9 µM (inactive).

**Q.** And the GI50 (LOX IMVI)?
**A.** Its GI50 is 17.7 µM (inactive).

**Q.** What about the GI50 (NCI-H23) of the same compound?
**A.** The GI50 was 31.6 µM (inactive).

**Q.** What about the GI50 (NCI-H460) of the same compound?
**A.** Its GI50 is 36.5 µM (inactive).

**Q.** What about the GI50 (OVCAR-3) of the same compound?
**A.** The GI50 was 28.8 µM (inactive).

**Q.** What about the GI50 (OVCAR-5) of the same compound?
**A.** The GI50 was 21.5 µM (inactive).

**Q.** What about the GI50 (OVCAR-8) of the same compound?
**A.** Its GI50 is 29.4 µM (inactive).

**Q.** What about the GI50 (RPMI-8226) of the same compound?
**A.** Its GI50 is 46 µM (inactive).

**Q.** What about the GI50 (SF-295) of the same compound?
**A.** Its GI50 is 48 µM (inactive).

**Q.** What about the GI50 (SK-MEL-28) of the same compound?
**A.** The GI50 was 45.9 µM (inactive).

**Q.** And the GI50 (SN12C)?
**A.** Its GI50 is 49.5 µM (inactive).

**Q.** What about the GI50 (SNB-75) of the same compound?
**A.** Its GI50 is 78.5 µM (inactive).

**Q.** What about the GI50 (SW-620) of the same compound?
**A.** The GI50 was 52.7 µM (inactive).

**Q.** What about the GI50 (UACC-257) of the same compound?
**A.** Its GI50 is 30.1 µM (inactive).

**Q.** And the GI50 (UO-31)?
**A.** Its GI50 is 35.4 µM (inactive).

**Q.** Which results are given for `O=C(CCC(=O)Nc1ccccc1C(F)(F)F)N/N=C1\C(=N\NC(=O)CCC(=O)Nc2ccccc2C(F)(F)F)C(c2ccc3c(c2)OCO3)Oc2ccccc21` (centres undefined)?
**A.** GI50 (DLD-1): 5.04 µM (inactive); GI50 (HCC 2998): > 100 µM (inactive); GI50 (HCT-116): 5.9 µM (inactive); GI50 (LOX IMVI): 6.28 µM (inactive); GI50 (NCI-H23): 22.8 µM (inactive); GI50 (NCI-H460): 4.02 µM (inactive); GI50 (NCI-H522): 4.74 µM (inactive); GI50 (OVCAR-3): 3.43 µM (inactive); GI50 (OVCAR-5): > 100 µM (inactive); GI50 (OVCAR-8): 7.87 µM (inactive); GI50 (RPMI-8226): 4.44 µM (inactive); GI50 (SF-295): 8.32 µM (inactive); GI50 (SF-539): 12 µM (inactive); GI50 (SK-MEL-28): > 100 µM (inactive); GI50 (SK-OV-3): 20.7 µM (inactive); GI50 (SN12C): 6.46 µM (inactive); GI50 (SNB-75): 10 µM (inactive); GI50 (SW-620): 6.22 µM (inactive); GI50 (UACC-257): > 100 µM (inactive); GI50 (UO-31): 5.64 µM (inactive)

**Q.** Which results are given for `CCOC(=O)[C@H]1Nc2c(cccc2[N+](=O)[O-])C2c3ccccc3CC21` (some centres undefined)?
**A.** GI50 (DLD-1): > 100 µM (inactive); GI50 (HCC 2998): > 100 µM (inactive); GI50 (HCT-116): > 100 µM (inactive); GI50 (LOX IMVI): > 100 µM (inactive); GI50 (NCI-H23): > 100 µM (inactive); GI50 (NCI-H460): > 100 µM (inactive); GI50 (NCI-H522): > 100 µM (inactive); GI50 (OVCAR-3): 40.8 µM (inactive); GI50 (OVCAR-5): > 100 µM (inactive); GI50 (OVCAR-8): > 100 µM (inactive); GI50 (RPMI-8226): > 100 µM (inactive); GI50 (SF-295): 35.6 µM (inactive); GI50 (SF-539): > 100 µM (inactive); GI50 (SK-MEL-28): > 100 µM (inactive); GI50 (SN12C): > 100 µM (inactive); GI50 (SNB-75): > 100 µM (inactive); GI50 (SW-620): > 100 µM (inactive); GI50 (UACC-257): 27.7 µM (inactive); GI50 (UO-31): > 100 µM (inactive)

**Q.** Which GI50 (DLD-1) does the source give for `CC1(C)CCc2cc3c(cc2O1)OC(C)(C)CC3=O` here?
**A.** The GI50 was 97.5 µM (inactive).

**Q.** And the GI50 (HCT-116)?
**A.** Its GI50 is 71.1 µM (inactive).

**Q.** And the GI50 (LOX IMVI)?
**A.** Its GI50 is > 100 µM (inactive).

**Q.** And the GI50 (NCI-H23)?
**A.** Its GI50 is 91.6 µM (inactive).

**Q.** And the GI50 (NCI-H460)?
**A.** Its GI50 is > 100 µM (inactive).

**Q.** What about the GI50 (NCI-H522) of the same compound?
**A.** The GI50 was 2.39 µM (inactive).

**Q.** What about the GI50 (OVCAR-3) of the same compound?
**A.** Its GI50 is 27.5 µM (inactive).

**Q.** And the GI50 (OVCAR-5)?
**A.** The GI50 was 46.8 µM (inactive).

**Q.** And the GI50 (OVCAR-8)?
**A.** The GI50 was > 100 µM (inactive).

**Q.** What about the GI50 (RPMI-8226) of the same compound?
**A.** Its GI50 is > 100 µM (inactive).

**Q.** And the GI50 (SF-295)?
**A.** The GI50 was > 100 µM (inactive).

**Q.** And the GI50 (SF-539)?
**A.** Its GI50 is > 100 µM (inactive).

**Q.** And the GI50 (SK-OV-3)?
**A.** Its GI50 is > 100 µM (inactive).

**Q.** And the GI50 (SN12C)?
**A.** The GI50 was 65.5 µM (inactive).

**Q.** And the GI50 (SNB-75)?
**A.** The GI50 was 70.8 µM (inactive).

**Q.** What about the GI50 (SW-620) of the same compound?
**A.** The GI50 was > 100 µM (inactive).

**Q.** And the GI50 (UO-31)?
**A.** The GI50 was 40.3 µM (inactive).
